Measurements from patent US10899764B2, “Imidazo isoindole derivative, preparation method therefor and medical use thereof” (Jiangsu Hengrui Medicine Co., Ltd., priority 2015, dated 2021).
Structures can show the parent of a compound that is named as a salt.

Tests used:
IDO in HeLa cells = IDO in HeLa cells (Homo sapiens (Human), UniProt P14902); assay: Inhibition activity on IDO in HeLa cells (INF-γ induced); assay type: cell-based; details: HeLa cells, INF-γ and tryptophan, 48 hours; read-out: IC50 for inhibiting the activity of IDO in HeLa cells
Sequence of IDO in HeLa cells (P14902 whole entry): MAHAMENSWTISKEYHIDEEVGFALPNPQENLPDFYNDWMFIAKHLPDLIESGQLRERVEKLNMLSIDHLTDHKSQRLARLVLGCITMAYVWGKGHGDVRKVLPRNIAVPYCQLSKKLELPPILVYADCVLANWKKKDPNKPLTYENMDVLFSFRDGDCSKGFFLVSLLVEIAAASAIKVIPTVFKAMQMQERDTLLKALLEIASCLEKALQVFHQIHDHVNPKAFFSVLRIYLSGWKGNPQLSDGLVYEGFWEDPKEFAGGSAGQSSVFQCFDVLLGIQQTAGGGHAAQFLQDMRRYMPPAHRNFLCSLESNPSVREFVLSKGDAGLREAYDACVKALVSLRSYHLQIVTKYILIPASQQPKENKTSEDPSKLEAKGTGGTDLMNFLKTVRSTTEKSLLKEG
Procedure: Assay for Determining the Inhibition Activity of the Present Compounds on IDO in HeLa Cells
IDO activity in HeLa cells was tested in vitro by the following method.
This method is used to determine the inhibition effect of the compounds of the present invention on the activity of IDO in HeLa cells. (Note: indoleamine 2,3-dioxygenase (IDO) is expressed in the HeLa cell line and induced by interferon gamma (INF-γ)).
The supernatant was removed, serum-free DMEM high glucose medium was added at 90 μL/well, then the compounds contained in the culture medium with INF-γ and tryptophan were added at 10 μL/well (the final concentrations: 10000, 1000, 100, 10, 1, 0.1 nM). […] Then, 80 μL of the supernate was transferred from the 96-well cell culture plate to a 96 well round-bottomed plate, then 30% (W/V) trichloroacetic acid was added at 16 μL/well, then the mixture was incubated for 25 minutes at 65° C. in an incubator. The reaction plate was centrifuged in a centrifuge for 5 minutes at 4700 RPM. Then, 50 μL of the supernatant was transferred from the reaction plate to a 96-well flat-bottomed transparent plate by a multi-channel pipette. Then, 2% (W/V) 4-(dimethylamino)benzaldehyde/glacial acetic acid solution was added at 50 μL/well, then the mixture was mixed uniformly for 1 minute on a shaker. After incubation for 2 minutes at room temperature, the absorbance at 480 nm was read on a Synergy HT Reader.
The inhibition activity of the compounds of the present invention on IDO in HeLa cells was tested by the assay described above.

[1] = Pharmacokinetics assay in SD rats after intragastrical administration; assay type: in vivo; details: both sexes, Sprague-Dawley, rat, plasma, po, intragastric, 10 mg/kg
Procedure: Sprague-Dawley (SD) rats were used as test animals. […] The pharmacokinetic behavior of the compounds of the present invention was studied and evaluated in rats.
Eight (8) healthy adult SD rats, half male and half female, were purchased from SINO-BRITSH SIPPR/BK LAB. […]
The samples were stored in heparinized test tubes, and centrifuged for 10 minutes at 3,500 rpm to separate blood plasma. The plasma samples were stored at −20° C. The rats were fed 2 hours after administration.
(§1) The concentration of the test compounds in rat plasma after intragastric administration was determined by LC/MS/MS.

[2] = Pharmacokinetics assay in c57bl/6 mice after intragastric administration; assay type: in vivo; details: mouse, plasma, po, female c57bl/6 mice, 3 mg/kg
Procedure: c57bl/6 mice were used as test animals. […] The pharmacokinetic behavior of the compounds of the present invention was studied and evaluated in c57bl/6 mice.
Eighteen (18) female c57bl/6 mice, were purchased from SINO-BRITSH SIPPR/BK LAB. ANIMAL LTD., CO.
The appropriate amount of each test compound was weighed, and added with 0.5% CMC-Na to prepare a 1 mg/mL suspension by an ultrasonic method.
After an overnight fast, 18 female c57bl/6 mice were equally divided into 2 groups, 9 mice per group, and administered the test compounds intragastrically at an administration volume of 0.2 mL/kg.
The samples were stored in heparinized test tubes, and centrifuged for 10 minutes at 3,500 rpm to separate blood plasma. The plasma samples were stored at −20° C.
as §1

[3] = read-out: Apparent Distribution Volume Vz/F
[4] = read-out: Mean Residence Time MRT

Structure (SMILES): Fc1cccc(N2CCC(C3c4c(F)cccc4-c4cncn43)CC2)c1 (centres unmarked) [Example 3, 6-fluoro-5-(1-(3-fluorophenyl)piperidin-4-yl)-5H-imidazo[5,1-a]isoindole trifluoroacetate]
- IC50 (IDO in HeLa cells): 167 nM
- Vd/F [1, 3]: 14.1 ± 1.72 L/kg
- AUC ([1]; read-out: Area Under Curve AUC): 2620 ± 977 ng·h/mL
- CL/F ([1]; read-out: Clearance CLz/F): 70.9 ± 26.4 mL/min/kg
- half-life ([1]; read-out: Half-Life T½ (converted)): 2.54 ± 0.91 h
- MRT [1, 4]: 2.72 ± 0.36 h
- Cmax ([1]; read-out: Plasma Conc. Cmax): 1070 ± 524 ng/mL

Structure (SMILES): OCCn1cc(-c2ccc(N3CCC([C@H]4c5c(F)cccc5-c5cncn54)CC3)cc2)cn1 [Example 41, (S)-2-(4-(4-(4-(6-fluoro-5H-imidazo[5,1-a]isoindol-5-yl)piperidin-1-yl)phenyl)-1H-pyrazol-1-yl)ethanol]
- IC50 (IDO in HeLa cells): 47.7 nM
- Vd/F [2, 3]: 1.28 L/kg
- AUC ([2]; read-out: Area Under Curve AUC): 4630 ng·h/mL
- CL/F ([2]; read-out: Clearance CLz/F): 10.8 mL/min/kg
- half-life ([2]; read-out: Half-Life t½ (converted)): 2.06 h
- MRT [2, 4]: 1.36 h
- Cmax ([2]; read-out: Plasma Conc. Cmax): 1670 ng/mL
